Measurements reported in patent US20260234549A1, “NON-INVASIVE TUNING OF PROTEIN ALIGNMENT” (NEW YORK UNIVERSITY IN ABU DHABI CORPORATION, priority 2023, published 2026).

Experiments:
[1] = test system: fibroblasts cultured on matrix with aligned collagen fibrils (30° condition); test: αSMA gene expression (RT-qPCR) of fibroblasts on aligned collagen matrix treated with inhibitors; type: cell-based, human; details: 3 days; 1 μM verteporfin, 10 μM blebbistatin, 20 μM Y-27632, 2 μM SB-431542; 30° aligned matrix; normalized to fibroblasts
Procedure: Quantitative gene expression analysis: Gene expression analysis for fibroblast differentiation was performed using an established protocol. Briefly, TRIzol (Thermo Fisher Scientific, Dreieich, Germany) was used to extract total RNA. The obtained RNA was converted into complementary DNA (cDNA) using a high-capacity cDNA reverse transcription kit (Applied Biosystems, Waltham, USA). The concentration and the ratio of absorbance at 260 nm and 280 nm of cDNA were quantified using a Nanodrop (Thermo Fisher Scientific, Dreieich, Germany) prior to performing gene expression analysis. Ribosomal protein S26 (RPS26) was used as a reference gene. […] The primer sequences are listed in Table 1. qPCR was performed using SYBR Green PCR Master Mix (Applied Biosystems, Waltham, USA). The qPCR procedure was set as follows: denaturation for 5 min at 95° C.; 45 cycles of denaturation (95° C., 15 s), annealing under primer-specific conditions (30 s) and target gene-specific extension (30 s at 72° C.). The fluorescence signal was measured for 20 s at 72° C. To confirm the specificity of the PCR products, melting curve analysis was performed at the end of each run. Experiments were performed in 4 replicates. Treatment with inhibitors: Fibroblasts cultured onto matrix reconstituted on inclined surfaces with an angle of 30° were treated with 1 μM verteporfin (YAP inhibitor; Sigma-Aldrich, Darmstadt, Germany), 10 μM blebbistatin (myosin inhibitor; Tocris, Bristol, United Kingdom), 20 μM Y-27632 (Rho-associated kinase (ROCK) inhibitor; Tocris, Bristol, United Kingdom) and 2 μM SB-431542 (TGF-31 receptor kinase inhibitor; Sigma-Aldrich, Darmstadt, Germany) for 3 days. After 3 days of treatment, RNA was extracted for the study of αSMA expression using qPCR, as stated in the quantitative gene analysis section. Experiments were performed in 6 replicates.

[2] = test system: fibroblasts cultured on matrix with aligned collagen fibrils (30° condition); test: Live/dead assay (DRAQ7, flow cytometry) of inhibitor-treated fibroblasts on aligned matrix; type: cell-based; details: 3 days; 1 μM verteporfin, 10 μM blebbistatin, 20 μM Y-27632, 2 μM SB-431542; 30° aligned matrix
Procedure: Treatment with inhibitors: Fibroblasts cultured onto matrix reconstituted on inclined surfaces with an angle of 30° were treated with 1 μM verteporfin (YAP inhibitor; Sigma-Aldrich, Darmstadt, Germany), 10 μM blebbistatin (myosin inhibitor; Tocris, Bristol, United Kingdom), 20 μM Y-27632 (Rho-associated kinase (ROCK) inhibitor; Tocris, Bristol, United Kingdom) and 2 μM SB-431542 (TGF-31 receptor kinase inhibitor; Sigma-Aldrich, Darmstadt, Germany) for 3 days. After 3 days of treatment, RNA was extracted for the study of αSMA expression using qPCR, as stated in the quantitative gene analysis section. Experiments were performed in 6 replicates.
Quantitative analysis of cell number and dead cells: Collagen matrices were digested using 2 mg/mL type IV collagenase (Thermo Fisher Scientific, Dreieich, Germany) for 15 min under standard cell culture conditions. Afterwards, cells were stained with DRAQ7 (dead cell staining dye; Biolegend, San Diego, USA) for 10 min on ice. Cells were analyzed using an Attune NxT Flow Cytometer equipped with an autosampler (Thermo Fisher Scientific, Dreieich, Germany). […] The percentage of dead cells was quantified by counting the number of cells that were positive for DRAQ7. At least 20,000 cells were analyzed per condition and replicate. […]

SMILES | αSMA gene expression [1] | cell death (percentage of dead cells) [2]
NC(=O)c1ccc(-c2nc(-c3ccc4c(c3)OCO4)c(-c3ccccn3)[nH]2)cc1 [SB-431542] | significantly reduced | 
C[C@@H](N)[C@H]1CC[C@H](C(=O)Nc2ccncc2)CC1 [Y-27632] | significantly reduced | 
Cc1ccc2c(c1)C(=O)C1(O)CCN(c3ccccc3)C1=N2 (stereo not shown) [blebbistatin] | significantly reduced | without harming cells
